{"source": "patent US7714014B2", "about": "“Targeting GLI proteins in human cancer by small molecules” (The Regents of the University of California, priority 2005, dated 2010)", "key": {"[1]": {"tested_on": "NSCLC cells A549, H358, and H322", "experiment": "MTS cell proliferation assay", "type": "cell-based, human", "conditions": "7.5 μM or 15 μM; dose-dependent, already after 1 day", "description": "Another assay for determining the number of viable cells in proliferation or cytotoxicity assays is the MTS assay, a calorimetric method. MTS assay reagents are commercially available (Promega Corp., Madison, Wis.). The reagent contains a tetrazolium compound [3-(4,5-dimethylthiazol-2-yl)-5-(3-carboxymethoxyphenyl)-2-(4-sulfophenyl)-2H-tetrazolium, inner salt; MTS] and an electron coupling reagent (phenazine ethosulfate; PES). PES has enhanced chemical stability, which allows it to be combined with MTS to form a stable solution. The MTS tetrazolium compound (Owen.s reagent) is bioreduced by cells into a colored formazan product that is soluble in tissue culture medium. This conversion may be accomplished by NADPH or NADH produced by dehydrogenase enzymes in metabolically active cells. The quantity of formazan product as measured by the absorbance at 490 nm is directly proportional to the number of living cells in culture. Because the MTS formazan product is soluble in tissue culture medium, this assay requires fewer steps than procedures that use tetrazolium compounds such as MTT. The formazan product of MTT reduction is a crystalline precipitate that requires an additional step in the procedure to dissolve the crystals before recording absorbance readings at 570 nm. […]"}, "H358 (NSCLC)": {"tested_on": "H358 (NSCLC)", "experiment": "Apoptosis analysis (Annexin V FITC, flow cytometry)", "type": "cell-based, human", "conditions": "3 days", "description": "Apoptosis was analyzed by using an Annexin V FITC Apoptosis Detection Kit (Biosource, Camarillo, Calif.), according to the manufacturer's protocol. After treatment with different small molecule compounds at various concentrations for about 3 days, cells were harvested by trypsinization, stained and immediately analyzed by flow cytometry (FACScan; Decton Dickinson, Franklin Lake, N.J.). Early apoptotic cells with exposed phosphatidylserine but intact cell membranes will bind to Annexin V-FITC, but not propidium iodide (PI). Cells in necrotic or late apoptotic stages will be labeled with both Annexin V-FITC and PI. “% apoptotic cells” or “% apoptosis” refers to the combined early and late apoptotic cells.\nDose titration experiments of small molecule compound FN1-8 was performed using the NSCLC cell lines A549, H358, and H322. A 549, H358, and H322 cells were plated in 6-well plates and incubated with DM SO (control) or 7.5 μM, 10 μM, 15 μM, 20 μM, and 30 μM of FN1-8, respectively, for 3 days. A dramatic and dose-dependent cell killing in these cell lines was observed when FN1-8 was added at 15 μM or more. FN1-8 induced cell killing in A549 and […] at slightly lower concentrations than in H322 cells (data not shown). After 3 days, approximately 28% of the A549 cells and 58% of H358 underwent apoptosis when incubated with 20 μM FN1-8 (Table 3)."}, "[2]": {"tested_on": "Hedgehog signaling pathway in NSCLC tumor (H460)", "experiment": "Semi-quantitative RT-PCR of Hh pathway genes in xenograft tumors", "type": "in vivo, mouse", "description": "(§1) To examine whether the lead compound FN1-8 suppressed tumor growth through inhibition of the Hedgehog signaling pathway in vivo, expression of the key components and direct target genes of the Hh pathway (e.g., Shh, Ptch1, Gli1, Gli2, Gli3, Dvl-3) were analyzed by semi-quantitative RT-PCR using total RNA isolated from the xenograft tumors. GAPDH served as a control. This RT-PCR analysis was performed using a “pooled” tumor from two randomly selected mice of each group with reasonable size tumors."}, "[3]": {"tested_on": "Hedgehog signaling pathway in HT29 tumor", "experiment": "Semi-quantitative RT-PCR of Hh pathway genes in xenograft tumors", "type": "in vivo, mouse", "conditions": "HT29 xenograft tumor (negative control)", "description": "as §1"}, "[4]": {"tested_on": "human normal skin fibroblast cells (Malme-3)", "experiment": "Time course of cell survival (flow cytometry)", "type": "cell-based", "conditions": "10 μM or 20 μM, after 6 days", "description": "To investigate whether small molecule compounds of the present invention, e.g., FN1-8, specifically kill cancer cells, time course experiments of cell survival after administration of 10 μM and 20 μM of FN1-8 were also conducted using human normal skin fibroblast cells (Malme-3)."}, "[5]": {"experiment": "Body weight of mice after in vivo treatment", "design": "species or system mouse", "conditions": "three weeks after tumor inoculation and treatment", "description": "As one preliminary in vivo toxicity study of FN1-8, it was examined if there was loss of body weight in the mice after the FN1-8 treatment. Three weeks after the initial tumor inoculation and the treatment as described in the previous examples, body weights of DMSO control group (n=11) and FN1-8 treated group (n=8) were measured using a scale."}, "[6]": {"tested_on": "Dvl-3 and cytosolic β-catenin in HT29 tumor", "experiment": "Western blot of cytosolic proteins from xenograft tumors", "type": "in vivo, mouse", "conditions": "HT29 xenograft tumor (negative control)", "description": "(§2) To examine whether the lead compound FN1-8 suppressed tumor growth through inhibition of the Wnt signaling pathway in vivo, Western blot analysis of cytosolic proteins isolated from the H460 and HT29 xenograft tumors was performed. GAPDH served as a control. This Western Blot analysis was performed using a “pooled” tumor from two randomly selected mice of each group with reasonable size tumors."}, "[7]": {"tested_on": "Dvl-3 and cytosolic beta-catenin in H460 tumor", "experiment": "Western blot of cytosolic proteins from xenograft tumors", "type": "in vivo, mouse", "description": "as §2"}, "[8]": {"tested_on": "NSCLC cells A549, H358, and H322", "experiment": "Time course of cell survival (flow cytometry)", "type": "cell-based, human", "description": "The time course of cell survival in NSCLC cells A549, H358, and H322 after administration of small molecule compound FN1-8 was analyzed. A549 cells were incubated with 10 μM and 20 μM FN1-8, and H358 and H322 cells were incubated with 15 μM and 30 μM FN1-8, respectively. Then flow cytometry was used to examine the percentage of living and dead cells at different time points. […] In H358 cells, the cell killing effect of FN1-8 is already apparent by 1 day, and in H322 cells by 2 days. (data not shown)."}, "[9]": {"experiment": "Pharmacokinetic analysis in mice (oral administration)", "type": "in vivo, mouse", "description": "In another pharmacokinetic study, three mice were orally administrated with the small molecule compound FN1-5 at the dose of 30 mg/kg body weight. Then, as described above, plasma was collected from the tail-vein of each mouse and the concentration of FN1-5 in each plasma sample was determined by mass spectroscopy.\nSimilarly, the pharmacokinetic properties of orally administered small molecule compound FN1-8 were analyzed (FIG. 22B). Comparing the uptake of FN1-8 to FN1-5, the uptake of FN1-5 after oral administration seems to be better, by about 7 fold."}}, "data": [{"smiles": "O=C(NCCc1ccc(O)cc1)C1C(c2ccccc2)=NN(c2ccccc2)C1c1ccccc1", "note": "(stereo not drawn) [FN1-8, N-(2-(4-Hydroxyphenyl)ethyl)-1,3,5-triphenyl-4,5-dihydro-pyrazole-4-carboxyamide]", "values": [{"measurement": "cell proliferation (MTS)", "setting": "[1]", "value": "significantly inhibited cell proliferation"}, {"measurement": "% of apoptotic cells", "setting": "H358 (NSCLC); H358, 10 μM", "value": 15.2, "unit": "%"}, {"measurement": "% of apoptotic cells", "setting": "H358 (NSCLC); H358, 20 μM", "value": 58.1, "unit": "%"}, {"measurement": "Hh signaling in tumor (RT-PCR)", "setting": "[2]", "value": "inhibited"}, {"measurement": "Hh signaling in tumor (RT-PCR)", "setting": "[3]", "value": "no noticeable changes"}, {"measurement": "cell killing in normal cells", "setting": "[4]", "value": "no cell killing"}, {"measurement": "loss of body weight", "setting": "[5]", "value": "No noticeable loss of the body weight"}, {"measurement": "Dvl-3 and cytosolic β-catenin levels in tumor", "setting": "[6]", "value": "no noticeable changes"}, {"measurement": "Dvl-3 and cytosolic beta-catenin expression in tumor", "setting": "[7]", "value": "down-regulated"}, {"measurement": "time after which dose-dependent cell killing effect is shown", "setting": "[8]; A549, 10 μM and 20 μM", "value": 3, "unit": "days"}, {"measurement": "time by which cell killing effect is apparent", "setting": "[8]; H322, 15 μM and 30 μM", "value": "≤ 2", "unit": "days"}, {"measurement": "time by which cell killing effect is apparent", "setting": "[8]; H358, 15 μM and 30 μM", "value": "≤ 1", "unit": "days"}]}, {"smiles": "O=C(NCCCCCO)C1C(c2ccccc2)=NN(c2ccccc2)C1c1ccccc1", "note": "(stereo not drawn) [FN1-5, N-(5-Hydroxypentyl)-1,3,5-triphenyl-4,5-dihydro-pyrazole-4-carboxyamide]", "values": [{"measurement": "uptake of FN1-5 relative to FN1-8", "setting": "[9]; oral administration", "value": "about 7 fold"}, {"measurement": "time of uptake into plasma", "setting": "[9]; oral, 30 mg/kg", "value": "≤ 10", "unit": "min"}, {"measurement": "time within which plasma concentration diminishes", "setting": "[9]; oral, 30 mg/kg", "value": "≤ 24", "unit": "h"}]}]}
